# Measurements published in PMC7489219 (Molecular Brain, 2020).
# Where a name gives a salt, the structure may show the parent alone.
# Test system: T1, primary mouse cortical neurons
# T1 construct: primary cortical neurons, DIV 10
# Test: cells
# Set-up: Protection from NMDA-induced (30 uM, 10 min) neuronal death; Hoechst nuclear morphology by automated microscopy
# Conditions: Cortical neurone, 20 h, read-out: % inhibition, inhibition of NMDA-induced cell death (protection score), 30 min pre-treatment
# Experimental: On DIV 10, compounds were applied to the cells reaching an end concentration of 10 μM. Cells were incubated for 30 min at 37 °C, 5% CO2 before adding NMDA (30 μM). Cells were incubated for another 10 min in the incubator, then washed twice with defined minimal medium containing 10 μM of the respective compound and incubated for an additional 20 h before readout. Untreated (no NMDA) and NMDA-only stimulated wells were treated with 0.1% DMSO. […] After 15 min of incubation at room temperature, cells were washed twice with phosphate buffered saline. […] Dead neurons were identified by amorphous or shrunken nuclei using CellProfiler and CellProfiler Analyst software. For all cell death analyses the experimental unit (N) is defined as an independent experiment using an independent neuronal preparation. For each independent experiment, data from 3 replicate wells (i.e., from 36 images), representing an average of 3000 cells was analyzed per condition. The survival rate S was calculated by dividing the number of living cells by the total number of cells. The survival rate was then used to calculate the protection score according to Scompound−Svehicle/Suntreated−Svehicle×100=%protection , where ‘compound’ refers to compound + NMDA treatment, ‘vehicle’ refers to vehicle + NMDA treatment, and ‘untreated’ refers to DMSO control. […] As a proof of principle, we next used our assay to screen two commercially available drug libraries. In these screens, primary cortical cells were incubated with test compounds at 10 μM concentration for 30 min before addition of 30 μM NMDA. After 10 min NMDA treatment, cells were washed with fresh medium and kept in the presence of test compounds for 20 h until assessment of cell viability. […] This library covers structurally diverse drugs from several fields such as oncology, cardiology, immunology, and neurology/psychiatry.
row,SMILES,inhibition at 10 µM
1,COc1ccc([C@@H]2CC(=O)c3c(O)cc(O[C@@H]4O[C@H](CO[C@@H]5O[C@@H](C)[C@H](O)[C@@H](O)[C@H]5O)[C@@H](O)[C@H](O)[C@H]4O)cc3O2)cc1O [Hesperidin],-3.55%
2,c1cc2c(cc1[C@H]1OC[C@H]3[C@@H]1CO[C@@H]3c1ccc3c(c1)OCO3)OCO2 [Sesamin (Fagarol)],15.7%
3,CCOC(=O)c1ncn2c1CN(C)C(=O)c1cc(F)ccc1-2 [Flumazenil],-13.8%
4,CCc1cccc2c3c([nH]c12)C(CC)(CC(=O)O)OCC3 (centres unmarked) [Etodolac (Lodine)],9.68%
5,CCCSc1ccc2[nH]c(NC(=O)OC)nc2c1 [Albendazole (Albenza)],28.3%
6,C[C@]12CC[C@@H]3c4ccc(O)cc4C[C@@H](CCCCCCCCC[S+]([O-])CCCC(F)(F)C(F)(F)F)[C@H]3[C@@H]1CC[C@@H]2O (some centres unmarked) [Fulvestrant (Faslodex)],-2.64%
7,C[C@]12CC[C@@H]3c4ccc(O)cc4CC[C@H]3[C@@H]1CC[C@@H]2O [Estradiol],4.78%
8,c1coc(CNc2ncnc3[nH]cnc23)c1 [Kinetin (6-Furfuryladenine)],-0.453%
9,COC1=C(OC)C(=O)C(C/C=C(\C)CC/C=C(\C)CC/C=C(\C)CC/C=C(\C)CC/C=C(\C)CC/C=C(\C)CC/C=C(\C)CC/C=C(\C)CC/C=C(\C)CCC=C(C)C)=C(C)C1=O [Coenzyme Q10(CoQ10)],9.82%
10,CS(=O)(=O)CCNCc1ccc(-c2ccc3ncnc(Nc4ccc(OCc5cccc(F)c5)c(Cl)c4)c3c2)o1 [Lapatinib Ditosylate (Tykerb)],4.76%
11,C=CC1=C(C(=O)O)N2C(=O)[C@@H](NC(=O)/C(=N\O)c3csc(N)n3)[C@H]2SC1 [Cefdinir (Omnicef)],44.5%
12,C/C=C1\[C@H]2C=C(C)C[C@]1(N)c1ccc(=O)[nH]c1C2 [(-)-Huperzine A],-1.76%
13,CC(=O)O[C@@]12CO[C@@H]1C[C@H](O)[C@@]1(C)C(=O)[C@H](O)C3=C(C)[C@@H](OC(=O)[C@H](O)[C@@H](NC(=O)OC(C)(C)C)c4ccccc4)C[C@@](O)([C@@H](OC(=O)c4ccccc4)[C@H]21)C3(C)C [Docetaxel (Taxotere)],-4.27%
14,O=C(O)COCCN1CCN(C(c2ccccc2)c2ccc(Cl)cc2)CC1 (centres unmarked) [Cetirizine Dihydrochloride],-10.5%
15,C=C1C[C@@H]2[C@H](CC[C@]3(C)C(=O)CC[C@@H]23)[C@@]2(C)C=CC(=O)C=C12 [Exemestane],-1.67%
16,NC(=O)c1cnccn1 [Pyrazinamide (Pyrazinoic acid amide)],15.2%
17,NCCc1ccc(O)c(O)c1 [Dopamine hydrochloride (Inotropin)],-1.44%
18,Nc1nc2ccc(OC(F)(F)F)cc2s1 [Riluzole (Rilutek)],40.9%
19,CCn1cc(C(=O)O)c(=O)c2cc(F)c(N3CCNC(C)C3)c(F)c21 (centres unmarked) [Lomefloxacin hydrochloride (Maxaquin)],3.08%

row,SMILES,inhibition at 10 µM
1,C[C@H](CCC(=O)O)[C@H]1CC[C@H]2[C@@H]3[C@@H](O)C[C@@H]4C[C@H](O)CC[C@]4(C)[C@H]3CC[C@]12C [Ursodiol (Actigal Urso)],35.3%
2,COc1c(C)c2c(c(O)c1C/C=C(\C)CCC(=O)OCCN1CCOCC1)C(=O)OC2 [Mycophenolate mofetil (CellCept)],4.41%
3,COc1ccc(-c2oc3c(CC=C(C)C)c(O[C@@H]4O[C@H](CO)[C@@H](O)[C@H](O)[C@H]4O)cc(O)c3c(=O)c2O[C@@H]2O[C@@H](C)[C@H](O)[C@@H](O)[C@H]2O)cc1 [Icariin],-2.42%
4,COCCCOc1cc(C[C@@H](C[C@H](N)[C@@H](O)C[C@H](C(=O)NCC(C)(C)C(N)=O)C(C)C)C(C)C)ccc1OC [Aliskiren hemifumarate],30.5%
5,CCOC(=O)C(C)(C)Oc1ccc(Cl)cc1 [Clofibrate (Atromid-S)],-1.89%
6,C=C1CC[C@@H]2[C@](C)(CO)[C@H](O)CC[C@@]2(C)[C@@H]1C/C=C1/C(=O)OC[C@H]1O [Andrographolide],-4.01%
7,OC[C@H]1OC(O)[C@H](O)[C@@H](O)[C@@H]1O (stereo partly drawn) [Dextrose (D-glucose)],-6.8%
8,CC(C)(O)[C@H]1CC[C@@](C)([C@H]2[C@@H](O)C[C@@]3(C)[C@@H]4C[C@H](O[C@@H]5O[C@H](CO)[C@@H](O)[C@H](O)[C@H]5O)[C@H]5C(C)(C)[C@@H](O[C@@H]6OC[C@@H](O)[C@H](O)[C@H]6O)CC[C@@]56C[C@@]46CC[C@]23C)O1 [Astragaloside A],0.89%
9,O=c1[nH]c(=O)n([C@H]2C[C@H](O)[C@@H](CO)O2)cc1F [Floxuridine],-8.07%
10,Cc1c(N)nc([C@H](CC(N)=O)NC[C@H](N)C(N)=O)nc1C(=O)N[C@H](C(=O)N[C@H](C)[C@@H](O)[C@H](C)C(=O)N[C@H](C(=O)NCCc1nc(-c2nc(C(=O)NCCC[S+](C)C)cs2)cs1)[C@@H](C)O)[C@@H](O[C@@H]1O[C@@H](CO)[C@@H](O)[C@H](O)[C@@H]1O[C@H]1O[C@H](CO)[C@@H](O)[C@H](OC(N)=O)[C@@H]1O)c1cnc[nH]1 [Bleomycin sulfate],-2.58%
11,CC(C)[N+]1(C)[C@@H]2CC[C@H]1CC(OC(=O)C(CO)c1ccccc1)C2 (some centres unmarked) [Ipratropium bromide],9.81%
12,CC[C@@]1(O)C(=O)OCc2c1cc1n(c2=O)Cc2cc3c(CN(C)C)c(O)ccc3nc2-1 [Topotecan HCl],-1.54%
13,Cc1cccc(C)c1NC(=O)CN1CCCC1=O [Nefiracetam (Translon)],7.17%
14,CC(=O)O[C@H]1C[C@@H]2CC[C@@H]3[C@H](CC[C@@]4(C)[C@H]3C[C@H]([N+]3(C)CCCCC3)[C@@H]4OC(C)=O)[C@@]2(C)C[C@@H]1[N+]1(C)CCCCC1 [Pancuronium (Pavulon)],7.54%
15,CCOC(=O)C1=C(C)NC(C)=C(C(=O)OC)C1c1cccc(Cl)c1Cl (centres unmarked) [Felodipine (Plendil)],-1.75%
16,CC(C)(C)NCC(O)c1ccc(O)c(CO)c1 (centres unmarked) [Salbutamol sulfate (Albuterol)],-7.52%
17,O=C(NCCO[N+](=O)[O-])c1cccnc1 [Nicorandil (Ikorel)],51%
18,CC(=O)OCC(=O)[C@@]12N=C(C)O[C@@H]1C[C@H]1[C@@H]3CCC4=CC(=O)C=C[C@]4(C)[C@H]3[C@@H](O)C[C@@]12C [Deflazacort (Calcort)],-1.74%
19,CC(=O)OCC(=O)[C@@]1(O)CC[C@H]2[C@@H]3CCC4=CC(=O)C=C[C@]4(C)[C@H]3[C@@H](O)C[C@@]21C [Prednisolone acetate (Omnipred)],-1.13%

row,SMILES,inhibition at 10 µM
1,CCCCNc1ccc(C(=O)OCCN(C)C)cc1 [Tetracaine hydrochloride (Pontocaine)],-0.577%
2,CN(C)Cc1c[nH]c2ccccc12 [Gramine],-3.83%
3,COc1ccc(-c2coc3cc(O)ccc3c2=O)cc1 [Formononetin (Formononetol)],-0.533%
4,CCOC(=O)[C@H](CCc1ccccc1)N[C@@H](C)C(=O)N1[C@H](C(=O)O)C[C@@H]2CCC[C@@H]21 [Ramipril (Altace)],-0.755%
5,CC(=O)O[C@H]1C(=O)[C@@]2(C)[C@H]([C@H](OC(=O)c3ccccc3)[C@]3(O)C[C@H](OC(=O)[C@H](O)[C@@H](NC(=O)c4ccccc4)c4ccccc4)C(C)=C1C3(C)C)[C@]1(OC(C)=O)CO[C@@H]1C[C@@H]2O [Paclitaxel (Taxol)],-12.8%
6,COc1nc(N)nc2c1ncn2[C@@H]1O[C@H](CO)[C@@H](O)[C@@H]1O [Nelarabine (Arranon)],-9.06%
7,Oc1c(Cl)cc(Cl)c2cccnc12 [Chloroxine],-4.86%
8,COc1ccc2cccc(CCNC(C)=O)c2c1 [Agomelatine],-12.7%
9,CN1CC(=O)N2[C@H](c3ccc4c(c3)OCO4)c3[nH]c4ccccc4c3C[C@@H]2C1=O [Tadalafil (Cialis)],0.202%
10,CCc1nc(N)nc(N)c1-c1ccc(Cl)cc1 [Pyrimethamine],-0.769%
11,CC(=O)NC[C@H]1CN(c2ccc(N3CCOCC3)c(F)c2)C(=O)O1 [Linezolid (Zyvox)],37%
12,CCN[C@H]1C[C@H](C)S(=O)(=O)c2sc(S(N)(=O)=O)cc21 [Dorzolamide HCL],0.0606%
13,O=C(O)CCCc1c[nH]c2ccccc12 [3-Indolebutyric acid (IBA)],-1.77%
14,CC1=C(CC(=O)O)c2cc(F)ccc2/C1=C\c1ccc([S+](C)[O-])cc1 (centres unmarked) [Sulindac (Clinoril)],-5.67%
15,O=C1N=C(O)NC1(c1ccccc1)c1ccccc1 [Phenytoin sodium (Dilantin)],3.12%
16,CC1=C(/C=C/C(C)=C/C=C/C(C)=C\C(=O)O)C(C)(C)CCC1 [Isotretinoin],-1.4%
17,CCn1cc(C(=O)O)c(=O)c2cc(F)c(N3CCNCC3)cc21 [Norfloxacin (Norxacin)],2.34%
18,Cc1nc(Nc2ncc(C(=O)Nc3c(C)cccc3Cl)s2)cc(N2CCN(CCO)CC2)n1 [Dasatinib (BMS-354825)],-9.79%
